Experiment [1] has as its system intraocular inflammation by Lipopoly saccharide from E. Coli. The experiment can be described thus: Effect of eye drops on endotoxin intraocular inflammation by Lipopoly saccharide from E. Coli. Format: in vivo, white male house rabbit. Particulars: 20 hours after LPS. On the procedure:
Effect on intraocular inflammation by Lipopoly saccharide from E. Coli
The eye drops of the compound (3), i.e., anthranylic acid amide of 8-(2-naphthyl)-5,6-trans-5,6-methano-7E-octenoic acid was prepared by formulating 3.8 mg of the compound (3) in 0.1 ml of ethanol followed by adding 0.9 ml of teel oil to obtain eye drops containing 0.38% of compound (3). The pH was 6.8.
The eye drops of the compound (7), i.e., 3,4-dimethoxy cinnamic acid ester of 8-(2-naphthyl)-5,6-trans-5,6-methano-7E-octene-1-ol were prepared by dissolving 5.3 mg of the compound (7) in 0.1 ml of ethanol upon heating at 70° C. to 80° C. followed by adding 0.9 ml of teel oil to obtain eye drops containing 0.53% of compound (7). The pH was 6.8.
Into one eye of a white male house rabbit having a body weight of 1.5 to 2.0 kg, were dropped the eye drops of the compounds (3) and (7), at 6 hours, 4 hours, and 1 hour before the experiment, and into the other eye, control eye drops containing 0.1 ml ethanol and 0.9 ml teel oil were dropped in the same manner.
To the vitreous body, 5 μg of lipopoly saccharide from E. coli (commercially available from Sigma) in 50 μl of physiolological saline was dropped. After 20 hours, the aqueous humor was taken and the protein content of the aqueous humor was determined by a Bio-rad assay method and the leucocyte in the aqueous humor was determined by a Neubauer Chamber. The LTB4 in the aqueous humor was determined by the HPLC and RIA methods.

Experiment [2] concerns LTB4 production. Kind of experiment: LTB4 production inhibition effect on human blood (Calcium ionophore-stimulated whole blood). Type of experiment: cell-based. Particulars: 10^-5 M Calcium ionophore, Control 20. The protocol: LTB4 production inhibition effect on human blood
A 10^-5 M amount of Calcium ionophore was added to human whole blood, followed by adding the compounds listed in Table 2 to evaluate the inhibition effect of these compounds on LTB4 production. The evaluation was carried out in a manner described in Gresele, P., Arnoult, J., Coene, M. C., Deckmyn, H., and Vermylen, J.: Leukotriene B4 production by stimulated whole blood: Comparative studies with isolated polymorphonuclear cells, Biochem. Biophys. Res. Commun. 137: 334-342, 1986.

Experiment [3] concerns LTB4 production. The experiment can be described thus: LTB4 production inhibition effect on iris of normal house rabbit. Format: cell-based. Particulars: Oryctolagus cuniculus, n=4; for inhibition at 100 µM: 10^-4 M; for inhibition at 10 µM: 10^-5 M; for inhibition at 1 µM: 10^-6 M; for inhibition at 0.1 µM: 10^-7 M. On the procedure: LTB4 production inhibition effect on iris of normal house rabbit
The iris of a normal house rabbit was enucleated, dipped in 1 cc of Tylord solution for control and 1 cc of Tylord solution containing a certain level of medicament, and after 5 minutes, the Tylord solution was passed through a SEP-pack, the portion containing leucotriene was separated by HPLC, and the LTB4 amount was measured by radioimmunoassay. (n=4)

Each structure is given as a SMILES string.

What is called inhibition is how much of the control response was suppressed. Low readings indicate little suppression, high ones strong suppression. As to `COC(=O)c1ccccc1NC(=O)CCC[C@H]1C[C@@H]1/C=C/c1ccc2ccccc2c1` (relative stereo) [Compound (3), Methyl anthranylate amide of 8-(2-naphthyl)-5,6-trans-5,6-methano-7E-octenoic acid], the Leucocyle in aqueous in experiment [1] (eye drops 0.38% at 6, 4 and 1 hour before, Control 10.1 × 10^5) was 6.0 × 10^5 cells/ml. The compound also came in with an Aqueous protein in experiment [1] (eye drops 0.38% at 6, 4 and 1 hour before, Control 30) of 40 mg/mL. Also, in experiment [1] (eye drops 0.38% at 6, 4 and 1 hour before, Control 150), the LTB4 in aqueous turned out to be 7.5 pg/mL. The “LTB4 production Amount” value with LTB4 production [2] (10^-5 M) is 11 µg/mL. For the same compound, the “LTB4 production Amount” value in the experiment on LTB4 production [2] (10^-6 M) turned out to be 12 µg/mL. Moreover, the “LTB4 production Amount” value in the experiment on LTB4 production [2] (10^-7 M) is 15 µg/mL. In addition, in the experiment on LTB4 production [3], testing at 100 µM gave an inhibition of 95%, the inhibition at 10 µM was 95%, at 1 µM the inhibition was 89% and the inhibition at 0.1 µM amounted to 67%.
For `COc1ccc(/C=C/C(=O)OCCCC[C@H]2C[C@@H]2/C=C/c2ccc3ccccc3c2)cc1OC` (relative stereo) [Compound (7), 3,4-Dimethoxycinnamic acid ester of 8-(2-naphthyl)-5,6-trans-5,6-methano-7 E-octene-1-ol], the Leucocyle in aqueous in experiment [1] (eye drops 0.53% at 6, 4 and 1 hour before, Control 5.5 × 10^5) is 7.5 × 10^5 cells/ml. The Aqueous protein in experiment [1] (eye drops 0.53% at 6, 4 and 1 hour before, Control 33) was 41 mg/mL. In experiment [1] (eye drops 0.53% at 6, 4 and 1 hour before, Control 320), this compound returned an LTB4 in aqueous of 170 pg/mL. Also, the “LTB4 production Amount” value in the experiment with LTB4 production [2] (10^-5 M) was 12 µg/mL. In addition, the “LTB4 production Amount” value in the experiment on LTB4 production [2] (10^-6 M) was 12 µg/mL. Also, the “LTB4 production Amount” value with LTB4 production [2] (10^-7 M) amounted to 13 µg/mL. For the same compound, in the experiment with LTB4 production [3], the inhibition at 100 µM stood at 92%, the inhibition at 10 µM is 88%, the inhibition at 1 µM came out at 80% and at 0.1 µM the inhibition was 20%.
With `O=C(O)CCC[C@H]1C[C@@H]1/C=C/c1ccc2ccccc2c1` (relative stereo) [Reference compound, reference compound], in the experiment on LTB4 production [3], the inhibition at 100 µM came to 35% and the inhibition at 10 µM was found to be 0%.

Source of the values: patent publication US4990650A, “Aromatic derivative and preparation method thereof” (Teijin Limited, priority 1986, dated 1991).
